Laboratory results: article PMC6364417, “Kinase inhibitor library screening identifies synergistic drug combinations effective in sensitive and resistant melanoma cells” (Journal of Experimental & Clinical Cancer Research : CR, 2019)

Assays:
Assay in all cases: Kinase inhibitor library screening, PrestoBlue cell viability, 1 or 10 μM, 72 h
501Mel cells (parental) = settings: 501Mel Parental, 72 h; for cell viability, 501Mel Parental, 1μΜ / cell viability, 501Mel Parental, 10μΜ: in %
Outline: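 Kinase inhibitors added at two fixed concentrations; 72 h exposure; PrestoBlue readout; % viability vs untreated; n ≥ 2 per line.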

[1] = system: 501Mel-GP cells (Dabrafenib-resistant); settings: 501Mel GP, 72 h; for cell viability, 501Mel GP, 1μΜ / cell viability, 501Mel GP, 10μΜ: in %
[2] = system: 501Mel-XP cells (Vemurafenib-resistant); settings: 501Mel XP, 72 h; for cell viability, 501Mel XP, 1μΜ / cell viability, 501Mel XP, 10μΜ: in %
A375 cells (parental) = settings: A375 Parental, 72 h; for cell viability, A375 Parental, 1μΜ / cell viability, A375 Parental, 10μΜ: in %
[3] = system: A375-GP cells (Dabrafenib-resistant); settings: A375 GP, 72 h; for cell viability, A375 GP, 1μΜ / cell viability, A375 GP, 10μΜ: in %
[4] = system: A375-XP cells (Vemurafenib-resistant); settings: A375 XP, 72 h; for cell viability, A375 XP, 1μΜ / cell viability, A375 XP, 10μΜ: in %
IGR37 cells (parental) = settings: IGR37 Parental, 72 h; for cell viability, IGR37 Parental, 1μΜ / cell viability, IGR37 Parental, 10μΜ: in %
[5] = system: IGR37-GP cells (Dabrafenib-resistant); settings: IGR37 GP, 72 h; for cell viability, IGR37 GP, 1μΜ: in %
[6] = system: IGR37-XP cells (Vemurafenib-resistant); settings: IGR37 XP, 72 h; for cell viability, IGR37 XP, 1μΜ: in %

In the case of `Cn1cc(-c2ccc3ncc(Cc4ccc5ncccc5c4)n3n2)cn1` [NVP-BVU972], the “cell viability (kinase inhibitor library screening)” value (501Mel cells (parental); 1μΜ) is reported as 107.5%, the “cell viability (kinase inhibitor library screening)” value (501Mel cells (parental); 10μΜ) is reported as 89.2% and the “cell viability (kinase inhibitor library screening)” value ([1]; 1μΜ) is reported as 89.9%. For the same molecule, the “cell viability (kinase inhibitor library screening)” value ([1]; 10μΜ) was 69.4%, the “cell viability (kinase inhibitor library screening)” value ([2]; 1μΜ) was 74.0% and the “cell viability (kinase inhibitor library screening)” value ([2]; 10μΜ) was 62.7%. For the same molecule, the “cell viability (kinase inhibitor library screening)” value (A375 cells (parental); 10μΜ) was 100.0%, the “cell viability (kinase inhibitor library screening)” value (A375 cells (parental); 1μΜ) was 108.4% and the “cell viability (kinase inhibitor library screening)” value ([3]; 1μΜ) was 106.0%. For the same molecule, the “cell viability (kinase inhibitor library screening)” value ([3]; 10μΜ) was 100.5%, the “cell viability (kinase inhibitor library screening)” value ([4]; 1μΜ) was 109.6% and the “cell viability (kinase inhibitor library screening)” value ([4]; 10μΜ) was 105.5%. The “cell viability (kinase inhibitor library screening)” value (IGR37 cells (parental); 1μΜ) was 104.5%, the “cell viability (kinase inhibitor library screening)” value (IGR37 cells (parental); 10μΜ) was 96.9% and the “cell viability (kinase inhibitor library screening)” value ([5]; 1μΜ) was 108.8%. For the same molecule, the “cell viability (kinase inhibitor library screening)” value ([5]; 10μΜ) was 87.7%, the “cell viability (kinase inhibitor library screening)” value ([6]; 1μΜ) was 110.4% and the “cell viability (kinase inhibitor library screening)” value ([6]; 10μΜ) was 86.2%.

With `CNC(=O)c1ccccc1Nc1nc(Nc2ccc(N3CCOCC3)cc2OC)ncc1Cl` [NVP-TAE226] the “cell viability, 501Mel Parental, 1μΜ” value (501Mel cells (parental); 1μΜ) was 69.2, the “cell viability, 501Mel Parental, 10μΜ” value (501Mel cells (parental); 10μΜ) was 38.3 and the “cell viability, 501Mel GP, 1μΜ” value ([1]; 1μΜ) was 72.0. The “cell viability, 501Mel GP, 10μΜ” value ([1]; 10μΜ) was 34.3, the “cell viability, 501Mel XP, 1μΜ” value ([2]; 1μΜ) was 67.5 and the “cell viability, 501Mel XP, 10μΜ” value ([2]; 10μΜ) was 20.7. For the same molecule, the “cell viability, A375 Parental, 1μΜ” value (A375 cells (parental); 1μΜ) was 51.1, the “cell viability, A375 Parental, 10μΜ” value (A375 cells (parental); 10μΜ) was 12.7 and the “cell viability, A375 GP, 1μΜ” value ([3]; 1μΜ) was 41.6. The “cell viability, A375 GP, 10μΜ” value ([3]; 10μΜ) was 16.3, the “cell viability, A375 XP, 1μΜ” value ([4]; 1μΜ) was 52.4 and the “cell viability, A375 XP, 10μΜ” value ([4]; 10μΜ) was 21.6. The “cell viability, IGR37 Parental, 1μΜ” value (IGR37 cells (parental); 1μΜ) was 82.8, the “cell viability, IGR37 Parental, 10μΜ” value (IGR37 cells (parental); 10μΜ) was 36.2 and the cell viability, IGR37 GP, 10μΜ ([5]; 10μΜ) was 3.7%. For the same molecule, the “cell viability, IGR37 GP, 1μΜ” value ([5]; 1μΜ) was 59.0, the cell viability, IGR37 XP, 10μΜ ([6]; 10μΜ) was 1.5% and the “cell viability, IGR37 XP, 1μΜ” value ([6]; 1μΜ) was 34.8.

In the case of `CCOc1cc2ncc(C#N)c(Nc3ccc(OCc4ccccn4)c(Cl)c3)c2cc1NC(=O)/C=C/CN(C)C` [Neratinib (HKI-272)], the “cell viability, 501Mel Parental, 1μΜ” value (501Mel cells (parental); 1μΜ) is reported as 96.7, the “cell viability, 501Mel Parental, 10μΜ” value (501Mel cells (parental); 10μΜ) is reported as 54.8 and the “cell viability, 501Mel GP, 1μΜ” value ([1]; 1μΜ) is reported as 103.4. The “cell viability, 501Mel GP, 10μΜ” value ([1]; 10μΜ) was 64.1, the “cell viability, 501Mel XP, 1μΜ” value ([2]; 1μΜ) was 85.2 and the “cell viability, 501Mel XP, 10μΜ” value ([2]; 10μΜ) was 0.0171. For the same molecule, the “cell viability, A375 Parental, 1μΜ” value (A375 cells (parental); 1μΜ) was 97.5, the “cell viability, A375 Parental, 10μΜ” value (A375 cells (parental); 10μΜ) was 29.0 and the “cell viability, A375 GP, 1μΜ” value ([3]; 1μΜ) was 93.4. For the same molecule, the “cell viability, A375 GP, 10μΜ” value ([3]; 10μΜ) was 4.2, the “cell viability, A375 XP, 1μΜ” value ([4]; 1μΜ) was 89.5 and the “cell viability, A375 XP, 10μΜ” value ([4]; 10μΜ) was 10.7. The “cell viability, IGR37 Parental, 1μΜ” value (IGR37 cells (parental); 1μΜ) was 96.7, the “cell viability, IGR37 Parental, 10μΜ” value (IGR37 cells (parental); 10μΜ) was 66.7 and the cell viability, IGR37 GP, 10μΜ ([5]; 10μΜ) was 21.6%. The “cell viability, IGR37 GP, 1μΜ” value ([5]; 1μΜ) was 81.2, the cell viability, IGR37 XP, 10μΜ ([6]; 10μΜ) was 9.6% and the “cell viability, IGR37 XP, 1μΜ” value ([6]; 1μΜ) was 75.0.

With `Cc1cn(-c2cc(NC(=O)c3ccc(C)c(Nc4nccc(-c5cccnc5)n4)c3)cc(C(F)(F)F)c2)cn1` [Nilotinib (AMN-107)] the “cell viability (kinase inhibitor library screening)” value (501Mel cells (parental); 1μΜ) was 89.8%, the “cell viability (kinase inhibitor library screening)” value (501Mel cells (parental); 10μΜ) was 71.1% and the “cell viability (kinase inhibitor library screening)” value ([1]; 1μΜ) was 99.9%. For the same molecule, the “cell viability (kinase inhibitor library screening)” value ([1]; 10μΜ) was 74.5%, the “cell viability (kinase inhibitor library screening)” value ([2]; 1μΜ) was 84.0% and the “cell viability (kinase inhibitor library screening)” value ([2]; 10μΜ) was 54.3%. For the same molecule, the “cell viability (kinase inhibitor library screening)” value (A375 cells (parental); 10μΜ) was 66.2%, the “cell viability (kinase inhibitor library screening)” value (A375 cells (parental); 1μΜ) was 102.9% and the “cell viability (kinase inhibitor library screening)” value ([3]; 1μΜ) was 96.3%. The “cell viability (kinase inhibitor library screening)” value ([3]; 10μΜ) was 48.3%, the “cell viability (kinase inhibitor library screening)” value ([4]; 1μΜ) was 87.0% and the “cell viability (kinase inhibitor library screening)” value ([4]; 10μΜ) was 57.9%. For the same molecule, the “cell viability (kinase inhibitor library screening)” value (IGR37 cells (parental); 1μΜ) was 95.3%, the “cell viability (kinase inhibitor library screening)” value (IGR37 cells (parental); 10μΜ) was 73.7% and the “cell viability (kinase inhibitor library screening)” value ([5]; 1μΜ) was 98.8%. For the same molecule, the “cell viability (kinase inhibitor library screening)” value ([5]; 10μΜ) was 35.4%, the “cell viability (kinase inhibitor library screening)” value ([6]; 1μΜ) was 100.2% and the “cell viability (kinase inhibitor library screening)” value ([6]; 10μΜ) was 1.4%.
